Data taken from patent US20250152504A1, “INTRAUTERINE SYSTEMS COMPRISING ANTI-INFECTIVES FOR STEADY-STATE ACCUMULATION TO DISTAL EXTRAUTERINE TISSUE” (priority 2023, published 2025).
Like-named read-outs stand apart in the source and are kept apart here.

Experiments:
[1] = In vitro drug release from TPU matrix delivery system prototypes; assay type: physicochemical; details: for cumulative release of loaded drug: after 30 days
Procedure: Films were cut into disks with a 1-inch diameter die punch; disks were stacked and placed between two pieces of aluminum foil and compressed under a metal weight on a 120° C. dry bath. Thickness was monitored frequently until it measured 3.5 mm with digital calipers calibrated to 0.01 mm. Devices were cut from thick films using a custom rectangular 3.5 mm×13.3 mm die punch.
(§1) All release tests were performed in sink conditions in PBS supplemented with 2% w/v Cremophor® A25/Emulgin® B25. For the first 7-days of drug release testing, 1 mL samples were taken daily; following 7 days, samples were taken every 3-4 days. At all timepoints, bottles were drained and replaced with fresh media following sampling.
A qualification for selecting an optimal TPU for DPV delivery in this application is the time to achieve 50% cumulative release of drug. This is based on the standard use time of hormonal IUDs, which in practice are removed once about half of the initial load of drug is depleted from the device. Here, this standard was used as a benchmark to evaluate the sustained release properties of candidate delivery system designs. […] The fit of first-order release kinetics to the data was assessed. Equations 1 and 2 describe drug release from a system where dissolution is dependent on a concentration gradient.
Where k is the first order rate constant, Ct is the concentration of drug in solution at time t and C0 is the initial concentration of drug.
Where Q is the amount of drug release in time t and kh is the Higuchi release constant.
Based on the best-fit square-root of time relation, T50% was calculated for each TPU. […] Korsmeyer and Peppas provided a method for understanding drug release mechanisms of swelling and non-swelling polymeric systems, given by Equation 4: […]
Where Mt/M∝ is the fraction of drug released at time t, K is the rate constant, and n is the release exponent.

[2] = Triple active compound (RAL, MVC, ETR) intrauterine system in vivo study, tissue and secretion concentrations; details: for concentration at 28 days: 28 days after insertion
Description: Described herein is a study conducted on an intrauterine system having a plurality of delivery systems (such as shown in FIGS. 1D and 1E). This study included three matrix delivery systems. The first delivery system included raltegravir (RAL), the second delivery system included etravirine (ETR), and the third delivery system included maraviroc (MVC). The intrauterine system was implanted and retained in the uterus of a patient for 28 days.
Multiple samples were taken before, during, and after insertion of the intrauterine system. Plasma samples were taken an hour before insertion, at insertion, 24 hours after insertion, 48 hours after insertion, 72 hours after insertion, 7 days after insertion, 14 days after insertion, 21 days after insertion, and 28 days after insertion (when the intrauterine system was removed). Vaginal swabs were taken an hour before insertion, at 7 days after insertion, 14 days after insertion, 21 days after insertion, and 28 days after insertion. Vaginal biopsies were taken an hour before insertion, 7 days after insertion, and 28 days after insertion. Endometrial and cervical biopsies were taken an hour before insertion and 28 days after insertion. Histology was also performed an hour before insertion, and consistent visual inspection was done throughout for safety.

[3] = Post-use assay of residual ARVs in removed IUDs (triple study); assay type: in vivo; details: for Average dose / Total DPV released: 28 days
Description: FIGS. 15A-15C are graphs showing post-use assays of residual anti-retroviral pharmaceutical compositions in removed intrauterine devices, in accordance with the present technology. […]

[4] = In vitro drug release from core-sheath reservoir delivery system prototypes; assay type: physicochemical; details: 6 core-sheath reservoir prototypes, core TPU loaded at 1 wt %, three sheath polymers, 100 and 200 μm sheath thickness
Procedure: Reservoir delivery system prototypes were prepared using a heated coextrusion process. Briefly, core polymer (PY-PT43DE20) was melted and homogenized with the appropriate mass of dapivirine to achieve 1 wt % and 30 wt % core polymer loading. […] The inner crosshead diameter was varied mid-extrusion to generate devices with sheath thicknesses ranging from 100-200 μm while retaining a constant outer diameter. Material was cut to the desired length per device (13.33 mm) and in-spec devices were identified based on sheath thickness using brightfield microscopy. Devices were incubated for two weeks at 40° C. to equilibrate drug in the core and sheath compartments.
as §1, with “sampling. For reservoir delivery system prototypes, three replicates of each formulation were end capped and one device was tested with no end cap to confirm the integrity of the end cap in preventing uncontrolled diffusion form the exposed core.” for “sampling.”
Both polyether sheath reservoirs (R1 & R2) released DPV faster than polycarbonate sheath reservoirs (R3 & R4). […]

[5] = 1 wt % loading, TPU2 matrix, from best-fit release model
[6] = 1 wt % loading, TPU3 matrix, from best-fit release model
[7] = 1 wt % loading, TPU4 matrix, from best-fit release model
[8] = 1 wt %, TPU4 matrix, total by 30 days
[9] = 16.6 wt % loading, TPU4 matrix, from best-fit release model
[10] = 16.6 wt %, TPU4 matrix, final rate at 30 days, per each ⅓ segment of the device
[11] = 20 wt % matrix, hydrophobic and crystalline TPU, after 20 days

| Structure (SMILES) | Actual T50% ([1]; 1 wt % loading, TPU2 matrix) | First-Order: k ([1]; 1 wt % loading, TPU2 matrix) | Higuchi: kH ([1]; 1 wt % loading, TPU2 matrix) | Predicted T50% [1, 5] | Actual T50% ([1]; 1 wt % loading, TPU3 matrix) | First-Order: k ([1]; 1 wt % loading, TPU3 matrix) | Higuchi: kH ([1]; 1 wt % loading, TPU3 matrix) | Korsmeyer-Peppas Constant: n ([1]; 1 wt % loading, TPU3 matrix) | Predicted T50% [1, 6] | First-Order: k ([1]; 1 wt % loading, TPU4 matrix) | Higuchi: kH ([1]; 1 wt % loading, TPU4 matrix) | Korsmeyer-Peppas Constant: n ([1]; 1 wt % loading, TPU4 matrix) | Predicted T50% [1, 7] | cumulative release [1, 8] | First-Order: k ([1]; 16.6 wt % loading, TPU4 matrix) | Higuchi: kH ([1]; 16.6 wt % loading, TPU4 matrix) | Korsmeyer-Peppas Constant: n ([1]; 16.6 wt % loading, TPU4 matrix) | Predicted T50% [1, 9] | cumulative release of loaded drug ([1]; 16.6 wt %, TPU4 matrix) | release rate [1, 10] | other results |
| --- | --- | --- | --- | --- | --- | --- | --- | --- | --- | --- | --- | --- | --- | --- | --- | --- | --- | --- | --- | --- | --- |
| Cc1cc(C#N)cc(C)c1Oc1nc(Nc2ccc(C#N)cc2)nc(N)c1Br [ETR, etravirine] | 13 days | 0.002, h^−1 | 0.026, %/h^1/2 | 15.5 days | 13 days | 0.002, h^−1 | 0.030, %/h^1/2 | 0.585, | 12 days | 0.0004, h^−1 | 0.011, %/h^1/2 | 0.535, | 90 days | 27.70% | 0.0001, h^−1 | 0.003, %/h^1/2 | 0.599, | 857 days | 8.5% | ~14 µg/day | Korsmeyer-Peppas Constant: n ([1]; 1 wt % loading, TPU2 matrix): 0.484,; concentration at 28 days ([2]; female, human, endometrium, other: intrauterine (implanted intrauterine system), read-out: tissue concentration, Endometrium): 434 ng/mL; Mean concentration in vaginal secretions ([2]; in vivo): 344.30 ng/mL; T50% [3]: 300 days; Average dose [3]: 15.24 µg/day; Total DPV released [3]: 0.43 mg |
| Nc1nc2c(ncn2COCCO)c(=O)[nH]1 [ACV, acyclovir] | – | – | – | – | – | – | – | – | – | – | – | – | – | – | – | – | – | – | – | – | minimum release rate ([1]; 20 wt % in TPU4 matrix, 15 days in vitro dissolution): 59 µg/day; cumulative release ([1]; 20 wt % in TPU4 matrix, after 15 days): 18%; Predicted T50% ([1]; 20 wt % in TPU4 matrix, best-fit in vitro release model): 156 days; maximum release ([1]; High saturation matrixes): 1112 micrograms per day; minimum release ([1]; High saturation matrixes): 109 micrograms per day |
| Cc1nc(N(C)C(=O)Cc2ccc(-c3ccccn3)cc2)sc1S(N)(=O)=O [PTV, pritelivir] | – | – | – | – | – | – | – | – | – | – | – | – | – | – | – | – | – | – | – | – | time for half of the original dose to release ([1]; 20 wt % matrix, Higuchi release kinetic analysis): approximately 500 days; cumulative release [1, 11]: approximately 9%; release rate [1, 11]: 30 µg/day; duration of use of the device ([1]; matrix device loaded with 20-30 mg of PTV, tested in vitro for 480 hours): 3-4 years; daily release [4]: 1 to 40 µg/day |
| Cc1nnc(C(=O)NC(C)(C)c2nc(C(=O)NCc3ccc(F)cc3)c(O)c(=O)n2C)o1 [RAL, raltegravir] | <1 days | 0.016, h^−1 | 0.052, %/h^1/2 | 2 days | 1 days | 0.004, h^−1 | 0.023, %/h^1/2 | 0.201, | 7 days | 0.0004, h^−1 | 0.010, %/h^1/2 | 0.333, | 109 days | 31.71% | 0.0002, h^−1 | 0.006, %/h^1/2 | 0.455, | 251 days | approximately 18% | around 22 μg/day | time to reach 100% release ([1]; 1 wt %, TPU2 matrix): 7 days; cumulative release of encapsulated drug ([1]; 1 wt %, TPU2 matrix, first 24 hours): approximately 50%; cumulative release of encapsulated drug ([1]; 1 wt %, TPU3 matrix, by 30 days / one month): 100%; cumulative release of encapsulated drug ([1]; 1 wt %, TPU3 matrix, first 24 hours): approximately 50%; First-Order: k ([1]; 30 wt % loading, TPU4 matrix): 0.0002, h^−1; Higuchi: kH ([1]; 30 wt % loading, TPU4 matrix): 0.005, %/h^1/2; Predicted T50% ([1]; 30 wt % loading, TPU4 matrix, from best-fit release model): 363 days; cumulative release of encapsulated drug ([1]; 30 wt %, TPU4 matrix, at 30 days): approximately 17%; release rate ([1]; 30 wt %, TPU4 matrix, at study terminus (30 days), per each ⅓ segment of the device): 41.13 µg/day; concentration at 7 days ([2]; female, human, in vivo, 7 days after insertion, read-out: tissue concentration, Vagina): 194 ng/mL; concentration at 28 days ([2]; female, human, in vivo, read-out: tissue concentration, Cervix): 237 ng/mL; concentration at 28 days ([2]; female, human, in vivo, read-out: tissue concentration, Endometrium): 237 ng/mL; concentration at 28 days ([2]; female, human, in vivo, read-out: tissue concentration, Rectum): 39.9 ng/mL; concentration at 28 days ([2]; female, human, in vivo, read-out: tissue concentration, Vagina): 253 ng/mL; T50% [3]: 101 days; Average dose [3]: 46.31 µg/day; Total DPV released [3]: 1.30 mg |
